Results: patent US20250017841A1, “COMPOUND CONTAINING ASCORBIC ACID DERIVATIVE” (DR'S CHOICE CO., LTD., priority 2021, published 2025)
Structures can show the parent of a compound that is named as a salt.

Columns and labels:
Type in all cases: physicochemical
[1] = Test system: browning of ascorbic acid caused by addition of an amino acid; details: 10 days after production
Method: For a reaction solution of ascorbic acid (1%) and amino acid (0.12%), the difference in degree of browning (chromaticity) based on the type of amino acid was examined for a 10 mM of phosphate citrate buffer solution pH 7.0. • Measurement wavelength: 480 nm, measurement time: 10 days after production

[2] = Example 2: degree of browning (chromaticity) on storage with added amino acid mixture; details: 4% solution, room temperature
Method: 4% of ascorbic acid (ASA) is dissolved in 200 ml of water, and the solution is adjusted to pH 5.0 with a 1M sodium hydroxide solution to obtain a test solution. Ascorbic acid 2-glucoside lysine salt (ASA2-G⋅Lys) (Production Example 2) is dissolved in the same manner by 4% to prepare a test solution. An amino acid mixture (histidine 1.5%, alanine 1.28, leucine 2.6%) was added to and dissolved in each test solution, and the solution was stored (at room temperature) for 20 months. Each test solution was collected every designated month, the absorption spectrum (wavelength: 480 nm) was measured, the degree of browning (chromaticity) was evaluated, and the results are shown in FIG. 4.

[3] = Example 1: degree of browning (chromaticity) on storage with added glycine; details: 1.5% solution, room temperature
Method: (Effect of addition of ascorbic acid 2-glucoside arginine salt on change in degree of browning (chromaticity) of ascorbic acid by addition of amino acid) 100 ml of water was taken to dissolve 1.5% of ascorbic acid (ASA), and the solution was adjusted to pH 5.0 with a 1M of sodium hydroxide solution to obtain a test solution. Ascorbic acid 2-glucoside arginine salt (ASA2-G⋅Arg) is used as a test solution by dissolving 1.5% of the product of Production Example 1 in 100 ml of water. To each test solution, 0.2% glycine was added and dissolved to prepare a solution, and the solution was stored (at room temperature) for 20 months. This test solution was collected every designated month, the absorption spectrum (wavelength: 480 nm) was measured, the degree of browning (chromaticity) was evaluated, and the results are shown in FIG. 3.
At time 0, the initial state immediately after the preparation was visually observed. In the other designated months, a spectrophotometer (absorption spectrum: wavelength 480 nm) was used for the measurement. In the case of ascorbic acid, browning started to occur at 4 months, transparency was visually observed, and light brown color remarkably appeared at 14 months. Meanwhile, in the ASA2-G⋅Arg added system, the initial state was confirmed.

SMILES | degree of browning (chromaticity) ([1]; ascorbic acid 1% + amino acid 0.12% (glycine, histidine, lysine or alanine), 10 mM phosphate citrate buffer pH 7.0, 480 nm) | degree of browning ([1]; ascorbic acid 1% + glycine or histidine 0.12%, pH 7.0, 480 nm) | appearance (color) ([2]; amino acid mixture, 20 months) | time after which browning appeared ([2]; pH 5.0, amino acid mixture (histidine, alanine, leucine)) [months] | time at which browning started to occur ([3]; pH 5.0, 0.2% glycine) [months] | time at which light brown color remarkably appeared ([3]; pH 5.0, 0.2% glycine) [months] | absorbance (Abs) of the absorption spectrum ([2]; 480 nm, amino acid mixture, 20 months) | appearance (transparency), visual observation ([3]; 0.2% glycine, 20 months) | absorbance (Abs) in the absorption spectrum ([3]; 480 nm, 0.2% glycine, 20 months)
O=C1O[C@H]([C@@H](O)CO)C(O)=C1O [ascorbic acid, (R)-3,4-dihydroxy-5-((S)-1,2-dihydroxyethyl) furan-2 (5H)-one] | high | remarkable | reddish brown color | 4 | 4 | 14 |  |  | 
O=C1OC([C@@H](O)CO)C(O)=C1OC1O[C@H](CO)[C@@H](O)[C@H](O)[C@H]1O (stereo partly shown) [ASA2-G⋅Lys, ascorbic acid 2-glucoside lysine salt] |  |  | extremely light reddish brown color |  |  |  | 0.017 |  | 
O=C1OC([C@@H](O)CO)C(O)=C1OC1O[C@H](CO)[C@@H](O)[C@H](O)[C@H]1O (stereo partly shown) [ASA2-G⋅Arg, ascorbic acid 2-glucoside arginine salt] |  |  |  |  |  |  |  | initial state | 0.01
